Measurements reported in the NIST ThermoML archive (doi:10.1021/acs.jced.7b00335).

Experiment: xn = mol fraction of the nth substance listed
Conditions: 100 kPa, Liquid; for viscosity: Concentric cylinders viscometry; for mass density: Vibrating tube method

O=Cc1ccccc1 [benzaldehyde] + CCC(C)O
Conditions | mass density [kg/m3] | viscosity [mPa·s]
293.15 K, x1 = 0.0813 | 824.7 | 3.08
293.15 K, x1 = 0.1623 | 842.8 | 2.62
293.15 K, x1 = 0.2401 | 860.9 | 2.3
293.15 K, x1 = 0.3517 | 886.9 | 1.97
293.15 K, x1 = 0.4404 | 908.4 | 1.791
293.15 K, x1 = 0.5612 | 938.1 | 1.648
293.15 K, x1 = 0.6519 | 961 | 1.576
293.15 K, x1 = 0.7423 | 984.4 | 1.528
293.15 K, x1 = 0.8511 | 1012.1 | 1.506
293.15 K, x1 = 0.94 | 1032.5 | 1.511
293.15 K, x1 = 1 | 1046.3 | 1.52
298.15 K, x1 = 0.0813 | 821.2 | 2.65
298.15 K, x1 = 0.1623 | 839.5 | 2.31
298.15 K, x1 = 0.2401 | 857.3 | 2.027
298.15 K, x1 = 0.3517 | 883.2 | 1.75
298.15 K, x1 = 0.4404 | 905.3 | 1.61
298.15 K, x1 = 0.5612 | 934.6 | 1.487
298.15 K, x1 = 0.6519 | 957.6 | 1.426
298.15 K, x1 = 0.7423 | 980.2 | 1.39
298.15 K, x1 = 0.8511 | 1007.3 | 1.38
298.15 K, x1 = 0.94 | 1028.6 | 1.39
298.15 K, x1 = 1 | 1041.7 | 1.41
303.15 K, x1 = 0.0813 | 816.3 | 2.23
303.15 K, x1 = 0.1623 | 834.1 | 1.984
303.15 K, x1 = 0.2401 | 852.4 | 1.78
303.15 K, x1 = 0.3517 | 878.1 | 1.561
303.15 K, x1 = 0.4404 | 899.7 | 1.438
303.15 K, x1 = 0.5612 | 929.2 | 1.322
303.15 K, x1 = 0.6519 | 952.1 | 1.279
303.15 K, x1 = 0.7423 | 975.7 | 1.255
303.15 K, x1 = 0.8511 | 1002.1 | 1.255
303.15 K, x1 = 0.94 | 1023.2 | 1.277
303.15 K, x1 = 1 | 1037.1 | 1.31
308.15 K, x1 = 0.0813 | 812.3 | 1.897
308.15 K, x1 = 0.1623 | 829.9 | 1.7
308.15 K, x1 = 0.2401 | 848.1 | 1.55
308.15 K, x1 = 0.3517 | 873.9 | 1.383
308.15 K, x1 = 0.4404 | 895.3 | 1.284
308.15 K, x1 = 0.5612 | 924.7 | 1.194
308.15 K, x1 = 0.6519 | 947.6 | 1.156
308.15 K, x1 = 0.7423 | 971.1 | 1.139
308.15 K, x1 = 0.8511 | 997 | 1.149
308.15 K, x1 = 0.94 | 1019 | 1.182
308.15 K, x1 = 1 | 1032.4 | 1.22
313.15 K, x1 = 0.0813 | 807.8 | 1.636
313.15 K, x1 = 0.1623 | 825.5 | 1.49
313.15 K, x1 = 0.2401 | 843.7 | 1.366
313.15 K, x1 = 0.3517 | 869.3 | 1.23
313.15 K, x1 = 0.4404 | 890.8 | 1.146
313.15 K, x1 = 0.5612 | 920.3 | 1.079
313.15 K, x1 = 0.6519 | 944.4 | 1.05
313.15 K, x1 = 0.7423 | 966.7 | 1.038
313.15 K, x1 = 0.8511 | 993.4 | 1.057
313.15 K, x1 = 0.94 | 1014.1 | 1.1
313.15 K, x1 = 1 | 1027.9 | 1.15
318.15 K, x1 = 0.0813 | 803 | 1.388
318.15 K, x1 = 0.1623 | 820.8 | 1.265
318.15 K, x1 = 0.2401 | 839 | 1.172
318.15 K, x1 = 0.3517 | 864.6 | 1.068
318.15 K, x1 = 0.4404 | 886.1 | 1.01
318.15 K, x1 = 0.5612 | 915.7 | 0.966
318.15 K, x1 = 0.6519 | 940 | 0.95
318.15 K, x1 = 0.7423 | 962.1 | 0.948
318.15 K, x1 = 0.8511 | 987.7 | 0.979
318.15 K, x1 = 0.94 | 1009.3 | 1.026
318.15 K, x1 = 1 | 1023.4 | 1.09
323.15 K, x1 = 0.0813 | 798.9 | 1.215
323.15 K, x1 = 0.1623 | 816.4 | 1.128
323.15 K, x1 = 0.2401 | 834.6 | 1.056
323.15 K, x1 = 0.3517 | 860 | 0.977
323.15 K, x1 = 0.4404 | 881.5 | 0.932
323.15 K, x1 = 0.5612 | 911 | 0.895
323.15 K, x1 = 0.6519 | 933.9 | 0.882
323.15 K, x1 = 0.7423 | 956 | 0.887
323.15 K, x1 = 0.8511 | 982.1 | 0.913
323.15 K, x1 = 0.94 | 1003.9 | 0.962
323.15 K, x1 = 1 | 1019.1 | 1.03

O=Cc1ccccc1 [benzaldehyde] + CCCC(C)O
Conditions | mass density [kg/m3] | viscosity [mPa·s]
293.15 K, x1 = 0.0809 | 825.2 | 3.3
293.15 K, x1 = 0.1662 | 841.4 | 2.75
293.15 K, x1 = 0.2441 | 858.3 | 2.36
293.15 K, x1 = 0.3552 | 882.5 | 1.95
293.15 K, x1 = 0.4418 | 903 | 1.757
293.15 K, x1 = 0.5664 | 933.2 | 1.62
293.15 K, x1 = 0.6565 | 956.4 | 1.568
293.15 K, x1 = 0.7447 | 980 | 1.537
293.15 K, x1 = 0.8528 | 1008.5 | 1.516
293.15 K, x1 = 0.9419 | 1031.8 | 1.51
293.15 K, x1 = 1 | 1046.3 | 1.52
298.15 K, x1 = 0.0809 | 821.1 | 2.775
298.15 K, x1 = 0.1662 | 837.2 | 2.35
298.15 K, x1 = 0.2441 | 854 | 2.05
298.15 K, x1 = 0.3552 | 878.2 | 1.731
298.15 K, x1 = 0.4418 | 898 | 1.584
298.15 K, x1 = 0.5664 | 928.2 | 1.458
298.15 K, x1 = 0.6565 | 951.2 | 1.416
298.15 K, x1 = 0.7447 | 975.4 | 1.395
298.15 K, x1 = 0.8528 | 1004.1 | 1.39
298.15 K, x1 = 0.9419 | 1027.4 | 1.395
298.15 K, x1 = 1 | 1041.7 | 1.41
303.15 K, x1 = 0.0809 | 817 | 2.4
303.15 K, x1 = 0.1662 | 833 | 2.06
303.15 K, x1 = 0.2441 | 849.7 | 1.809
303.15 K, x1 = 0.3552 | 873.9 | 1.55
303.15 K, x1 = 0.4418 | 894.4 | 1.411
303.15 K, x1 = 0.5664 | 923.8 | 1.301
303.15 K, x1 = 0.6565 | 946.9 | 1.259
303.15 K, x1 = 0.7447 | 971 | 1.25
303.15 K, x1 = 0.8528 | 1000 | 1.259
303.15 K, x1 = 0.9419 | 1023.1 | 1.28
303.15 K, x1 = 1 | 1037.1 | 1.31
308.15 K, x1 = 0.0809 | 812.9 | 2.035
308.15 K, x1 = 0.1662 | 828.8 | 1.78
308.15 K, x1 = 0.2441 | 845.5 | 1.584
308.15 K, x1 = 0.3552 | 869.6 | 1.369
308.15 K, x1 = 0.4418 | 890.3 | 1.25
308.15 K, x1 = 0.5664 | 919.3 | 1.159
308.15 K, x1 = 0.6565 | 942.3 | 1.128
308.15 K, x1 = 0.7447 | 966.5 | 1.117
308.15 K, x1 = 0.8528 | 995.5 | 1.138
308.15 K, x1 = 0.9419 | 1018 | 1.175
308.15 K, x1 = 1 | 1032.4 | 1.22
313.15 K, x1 = 0.0809 | 808.6 | 1.746
313.15 K, x1 = 0.1662 | 824.4 | 1.537
313.15 K, x1 = 0.2441 | 841.1 | 1.37
313.15 K, x1 = 0.3552 | 865.2 | 1.185
313.15 K, x1 = 0.4418 | 885.2 | 1.088
313.15 K, x1 = 0.5664 | 914.8 | 1.021
313.15 K, x1 = 0.6565 | 937.8 | 0.999
313.15 K, x1 = 0.7447 | 962 | 0.999
313.15 K, x1 = 0.8528 | 991.1 | 1.035
313.15 K, x1 = 0.9419 | 1013.9 | 1.088
313.15 K, x1 = 1 | 1027.9 | 1.15
318.15 K, x1 = 0.0809 | 804.2 | 1.46
318.15 K, x1 = 0.1662 | 820 | 1.291
318.15 K, x1 = 0.2441 | 836.7 | 1.167
318.15 K, x1 = 0.3552 | 860.8 | 1.032
318.15 K, x1 = 0.4418 | 881.4 | 0.963
318.15 K, x1 = 0.5664 | 910.4 | 0.9
318.15 K, x1 = 0.6565 | 933.4 | 0.881
318.15 K, x1 = 0.7447 | 957.4 | 0.884
318.15 K, x1 = 0.8528 | 986.6 | 0.932
318.15 K, x1 = 0.9419 | 1009.1 | 1.011
318.15 K, x1 = 1 | 1023.4 | 1.09
323.15 K, x1 = 0.0809 | 799.7 | 1.206
323.15 K, x1 = 0.1662 | 815.6 | 1.068
323.15 K, x1 = 0.2441 | 832.2 | 0.984
323.15 K, x1 = 0.3552 | 856.3 | 0.887
323.15 K, x1 = 0.4418 | 876.9 | 0.831
323.15 K, x1 = 0.5664 | 906.7 | 0.789
323.15 K, x1 = 0.6565 | 928.9 | 0.782
323.15 K, x1 = 0.7447 | 952.9 | 0.799
323.15 K, x1 = 0.8528 | 981.6 | 0.85
323.15 K, x1 = 0.9419 | 1004.5 | 0.941
323.15 K, x1 = 1 | 1019.1 | 1.03
